The text below walks through data of patent US20230373985A1 (Origenis Gmbh, priority 2020, published 2023).

The structures appear in SMILES notation. Bounds are passed on as bounds.

The target of assay [1] is T1, G2019S human LRRK2, catalytic site (Homo sapiens, UniProt Q5S007, G2019S).
T1 construct: G2019S human LRRK2, catalytic site; purchased ThermoFisher
The assay is described as follows: TR-FRET LanthaScreen Eu Kinase Binding Assay, LRRK2 G2019S. The note with it: LRRK2(G2019); one range stated for wt and G2019; read-out: IC50, Activity Toward LRRK2(G2019). As for the experimental part:
(§1) The basic protocol for TR-FRET LanthaScreen Eu Kinase Binding Assay inhibitor studies were performed as follows. LanthaScreen Kinase Binding Assays (ThermoFisher/USA) to evaluate inhibitors were performed by addition of 5 μL of test compound in corresponding DMSO dilutions/5 μl of kinase/antibody mixture, 5 μL of tracer into 384 well small volume plates. After incubation for 1 hour at room temperature, plates were read. Data analysis of emission ratios was according LanthaScreen Eu Kinase Binding Assay protocol.
(§2) Kinase and assay components were adjusted to final concentrations according to kit protocol. For LRRK2: 5 nM wt human LRRK2, catalytic site, or G2019S human LRRK2, catalytic site (ThermoFisher/USA), 2 nM Eu-Anti-GST Antibody, 10 nM Kinase Tracer 236 in 1× Kinase Buffer A. For NUAK1: 8 nM wt human NUAK1, full length (ThermoFisher/USA), 2 nM Eu-Anti-His Antibody, 5 nM Kinase Tracer 236 in 1× Kinase Buffer A.
For orientation: Time-resolved FRET reads energy transfer from a long-lived donor to a nearby acceptor.

Assay [2] concerns the target T2, wt human LRRK2, catalytic site (Homo sapiens, UniProt Q5S007).
T2 construct: 5 nM wt human LRRK2, catalytic site; purchased ThermoFisher
Put plainly: TR-FRET LanthaScreen Eu Kinase Binding Assay, LRRK2 wt. The conditions noted are these: one range stated for wt and G2019, read-out: IC50, Activity Toward LRRK2(Wt). The protocol:
as §1, §2

The target in assay [3] is T3, wt human TYK2, catalytic site (Homo sapiens, UniProt P29597).
T3 construct: wt human TYK2, catalytic site; purchased SignalChem
T3 sequence (P29597 897-1176 limits assumed): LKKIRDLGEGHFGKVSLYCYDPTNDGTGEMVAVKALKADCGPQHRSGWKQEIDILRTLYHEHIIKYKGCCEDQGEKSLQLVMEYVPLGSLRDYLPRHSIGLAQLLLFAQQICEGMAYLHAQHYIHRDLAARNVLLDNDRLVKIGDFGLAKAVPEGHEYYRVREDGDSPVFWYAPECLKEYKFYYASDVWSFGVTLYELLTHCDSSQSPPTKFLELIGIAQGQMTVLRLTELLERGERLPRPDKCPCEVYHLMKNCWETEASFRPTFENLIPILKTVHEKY
The assay is described as follows: HTRF KinEASE assay, TYK2. It counts as biochemical. The conditions noted are these: 1 μM ATP; read-out: IC50, Activity Toward TYK2. In short, it runs like this: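 HTRF KinEASE-TK readout with 1 μM biotinylated TK substrate in 1× kinase buffer, ≥30 min at room temperature, then antibody/streptavidin-XL665 detection for 60 min. TYK2 at 2 nM with 1 μM ATP; JAK2 at 1 nM with 100 μM ATP. Analysis uses emission ratios.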

The target in assay [4] is T4, wt human JAK1, catalytic site (Homo sapiens, UniProt P23458).
T4 construct: wt human JAK1, catalytic site; purchased ThermoFisher
Put plainly: HTRF KinEASE assay, JAK1. It counts as biochemical. The conditions noted are these: 2.5 μM ATP; read-out: IC50, Activity Toward JAK1. The essentials:
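Two-step HTRF KinEASE assay: compound, kinase/biotinylated TK substrate and ATP were incubated at least 30 min at room temperature. Antibody plus streptavidin-XL665 was then added and plates were read after 60 min. Inhibition was derived from emission ratios according to the kit protocol.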

T4 sequence (P23458 875-1153 limits assumed): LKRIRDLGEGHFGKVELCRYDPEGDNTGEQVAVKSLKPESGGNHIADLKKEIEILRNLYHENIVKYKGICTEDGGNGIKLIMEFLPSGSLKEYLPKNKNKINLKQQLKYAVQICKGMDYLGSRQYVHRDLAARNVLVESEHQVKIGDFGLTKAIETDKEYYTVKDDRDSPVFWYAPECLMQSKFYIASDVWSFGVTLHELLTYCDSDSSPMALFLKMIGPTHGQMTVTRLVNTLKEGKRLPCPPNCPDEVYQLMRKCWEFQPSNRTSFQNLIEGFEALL
T2 sequence (Q5S007 970-2527 limits assumed): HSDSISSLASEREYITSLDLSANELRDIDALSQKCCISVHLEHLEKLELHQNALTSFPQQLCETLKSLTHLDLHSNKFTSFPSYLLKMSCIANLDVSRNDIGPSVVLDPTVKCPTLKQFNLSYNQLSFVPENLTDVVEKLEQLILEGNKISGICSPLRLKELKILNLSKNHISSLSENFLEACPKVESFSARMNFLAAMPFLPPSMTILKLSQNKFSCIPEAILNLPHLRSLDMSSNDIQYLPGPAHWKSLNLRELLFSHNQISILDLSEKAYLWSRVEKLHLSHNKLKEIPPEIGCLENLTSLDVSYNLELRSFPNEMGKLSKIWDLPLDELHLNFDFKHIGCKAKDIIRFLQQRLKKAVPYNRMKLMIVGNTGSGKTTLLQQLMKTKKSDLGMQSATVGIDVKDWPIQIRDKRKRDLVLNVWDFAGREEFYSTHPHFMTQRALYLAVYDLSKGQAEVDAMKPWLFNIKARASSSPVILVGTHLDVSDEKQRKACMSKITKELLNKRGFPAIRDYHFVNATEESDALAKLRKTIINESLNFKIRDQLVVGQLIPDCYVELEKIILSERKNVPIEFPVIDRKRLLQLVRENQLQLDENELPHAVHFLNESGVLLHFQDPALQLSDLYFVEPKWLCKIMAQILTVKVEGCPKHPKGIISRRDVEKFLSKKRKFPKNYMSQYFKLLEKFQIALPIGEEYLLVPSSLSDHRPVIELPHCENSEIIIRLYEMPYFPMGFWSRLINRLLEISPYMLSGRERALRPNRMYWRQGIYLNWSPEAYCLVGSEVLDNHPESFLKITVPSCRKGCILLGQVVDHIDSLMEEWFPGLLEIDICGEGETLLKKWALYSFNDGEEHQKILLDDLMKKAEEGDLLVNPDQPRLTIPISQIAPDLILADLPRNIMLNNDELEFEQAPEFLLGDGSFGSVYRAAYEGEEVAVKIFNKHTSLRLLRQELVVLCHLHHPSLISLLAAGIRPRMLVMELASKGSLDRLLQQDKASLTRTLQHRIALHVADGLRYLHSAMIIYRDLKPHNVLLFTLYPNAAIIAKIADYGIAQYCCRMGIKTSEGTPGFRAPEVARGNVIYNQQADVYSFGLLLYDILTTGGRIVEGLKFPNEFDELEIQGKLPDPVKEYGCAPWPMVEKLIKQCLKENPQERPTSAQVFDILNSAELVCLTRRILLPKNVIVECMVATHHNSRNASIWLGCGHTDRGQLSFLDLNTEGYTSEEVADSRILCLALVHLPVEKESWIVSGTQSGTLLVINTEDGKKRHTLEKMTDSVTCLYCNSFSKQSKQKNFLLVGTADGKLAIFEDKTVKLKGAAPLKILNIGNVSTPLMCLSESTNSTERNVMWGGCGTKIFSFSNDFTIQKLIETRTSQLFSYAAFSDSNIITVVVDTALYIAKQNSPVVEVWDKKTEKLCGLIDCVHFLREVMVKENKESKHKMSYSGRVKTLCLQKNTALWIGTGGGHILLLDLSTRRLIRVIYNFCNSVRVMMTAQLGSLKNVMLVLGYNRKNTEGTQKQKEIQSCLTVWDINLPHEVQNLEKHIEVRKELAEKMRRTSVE
T1 sequence (Q5S007 970-2527 G2019S limits assumed): as the sequence (Q5S007 970-2527 limits assumed) above, with G1050S counted along it

For orientation: IC50 means the concentration at which inhibition is half-maximal. For the compound `NC(=O)c1nn(-c2c(Cl)cccc2Cl)cc1Nc1cnn(-c2ncccc2F)c1` [compound 386, 1-(2,6-dichlorophenyl)-4-((1-(3-fluoropyridin-2-yl)-1H-pyrazol-4-yl)amino)-1H-pyrazole-3-carboxamide], the IC50 lay within 100 to 1000 nM in assay [1], 100 to 1000 nM in assay [2], 10 to 100 nM in assay [3] and 10 to 100 nM in assay [4].
Turning to `Cc1cccnc1-c1ccc(Nc2cn(-c3c(Cl)cccc3Cl)nc2C(N)=O)cn1` [compound 395, 1-(2,6-dichlorophenyl)-4-((3′-methyl-[2,2′-bipyridin]-5-yl)amino)-1H-pyrazole-3-carboxamide], the IC50 in assay [1], in assay [2], in assay [3] and in assay [4] was 100 to 1000 nM throughout.
In the case of `Cc1ccnnc1-c1ccc(Nc2cn(-c3c(Cl)cccc3Cl)nc2C(N)=O)cc1` [compound 45, 1-(2,6-dichlorophenyl)-4-((4-(4-methylpyridazin-3-yl)phenyl)amino)-1H-pyrazole-3-carboxamide], the IC50 was 10 to 100 nM in assay [1], 10 to 100 nM in assay [2], less than 10 nM in assay [3] and 100 to 1000 nM in assay [4].
In the case of `NC(=O)c1nn(-c2c(Cl)cccc2Cl)cc1Nc1ccc(-c2nncn2/C=C/F)cc1` [compound 415, (E)-1-(2,6-dichlorophenyl)-4-((4-(4-(2-fluorovinyl)-4H-1,2,4-triazol-3-yl)phenyl)amino)-1H-pyrazole-3-carboxamide], the concentration for half-maximal inhibition (IC50) in assay [1] is 100 to 1000 nM; in assay [2] it was 100 to 1000 nM; in assay [3] it was less than 10 nM; in assay [4], 10 to 100 nM.
Regarding `Cn1nc(C(F)(F)F)nc1-c1ccc(Nc2cn(-c3c(F)cccc3Cl)nc2C(N)=O)cc1` [compound 231, 1-(2-chloro-6-fluorophenyl)-4-((4-(1-methyl-3-(trifluoromethyl)-1H-1,2,4-triazol-5-yl)phenyl)amino)-1H-pyrazole-3-carboxamide], the concentration for half-maximal inhibition (IC50) was 100 to 1000 nM in assay [1], 100 to 1000 nM in assay [2], less than 10 nM in assay [3] and less than 10 nM in assay [4].
With `Cc1cccc2nnc(-c3ccc(Nc4cn(-c5c(Cl)cccc5Cl)nc4C(N)=O)cc3)n12` [compound 376, 1-(2,6-dichlorophenyl)-4-((4-(5-methyl-[1,2,4]triazolo[4,3-a]pyridin-3-yl)phenyl)amino)-1H-pyrazole-3-carboxamide], the concentration for half-maximal inhibition (IC50) in assay [1] is 100 to 1000 nM; in assay [2] it was 100 to 1000 nM; in assay [3] it was 10 to 100 nM; in assay [4], 10 to 100 nM.
In the case of `NC(=O)c1nn(-c2c(Cl)cccc2Cl)cc1Nc1ccc(C(=O)N2CCN(CC(F)F)CC2)cc1` [compound 83, 1-(2,6-dichlorophenyl)-4-((4-(4-(2,2-difluoroethyl)piperazine-1-carbonyl)phenyl)amino)-1H-pyrazole-3-carboxamide], the IC50 in assay [1] is 100 to 1000 nM; in assay [2] it was 100 to 1000 nM; in assay [3], less than 10 nM; in assay [4] it was 100 to 1000 nM.
On to `NC(=O)c1nn(-c2c(Cl)cccc2Cl)cc1Nc1ccc(C(=O)N2CCC(F)C2)cc1` (centres unmarked) [compound 246, 1-(2,6-dichlorophenyl)-4-((4-(3-fluoropyrrolidine-1-carbonyl)phenyl)amino)-1H-pyrazole-3-carboxamide], for which the half-maximal inhibitory concentration (IC50) lay in the range of 100 to 1000 nM in assay [1], 100 to 1000 nM in assay [2], 10 to 100 nM in assay [3] and 10 to 100 nM in assay [4].
On to `Cc1cnnn1-c1ccc(Nc2cn(-c3c(Cl)cccc3Cl)nc2C(N)=O)cc1` [compound 391, 1-(2,6-dichlorophenyl)-4-((4-(5-methyl-1H-1,2,3-triazol-1-yl)phenyl)amino)-1H-pyrazole-3-carboxamide], for which the IC50 in assay [1] was in the range of 100 to 1000 nM; in assay [2], 100 to 1000 nM; in assay [3] it was 10 to 100 nM; in assay [4] it was 10 to 100 nM.
`CN1CCC(NS(=O)(=O)c2ccc(Nc3cn(-c4c(Cl)cccc4Cl)nc3C(N)=O)cc2)CC1` [compound 89, 1-(2,6-dichlorophenyl)-4-((4-(N-(1-methylpiperidin-4-yl)sulfamoyl)phenyl)amino)-1H-pyrazole-3-carboxamide]: the IC50 in assay [1] is 100 to 1000 nM; in assay [2] it was 100 to 1000 nM; in assay [3] it was less than 10 nM; in assay [4], 100 to 1000 nM.
Turning to `COCc1nc(C(F)(F)F)nn1-c1ccc(Nc2cn(-c3c(F)cccc3F)nc2C(N)=O)cc1` [compound 299, 1-(2,6-difluorophenyl)-4-((4-(5-(methoxymethyl)-3-(trifluoromethyl)-1H-1,2,4-triazol-1-yl)phenyl)amino)-1H-pyrazole-3-carboxamide], the concentration for half-maximal inhibition (IC50) in assay [1] was 100 to 1000 nM; in assay [2], 100 to 1000 nM; in assay [3] it was less than 10 nM; in assay [4] it was 100 to 1000 nM.
`NC(=O)c1nn(-c2c(Cl)cccc2Cl)cc1Nc1ccc(-n2ncc3c2CCOC3)cc1` [compound 70, 1-(2,6-dichlorophenyl)-4-((4-(6,7-dihydropyrano[4,3-c]pyrazol-1(4H)-yl)phenyl)amino)-1H-pyrazole-3-carboxamide]: the IC50 lay in the range of 100 to 1000 nM in assay [1], 100 to 1000 nM in assay [2], 10 to 100 nM in assay [3] and 100 to 1000 nM in assay [4].
With `N#Cc1cccc(F)c1-n1cc(Nc2ccc(C(=O)N3CC[C@@H](F)C3)cc2)c(C(N)=O)n1` [compound 450, (R)-1-(2-cyano-6-fluorophenyl)-4-((4-(3-fluoropyrrolidine-1-carbonyl)phenyl)amino)-1H-pyrazole-3-carboxamide], the IC50 is 100 to 1000 nM in assay [1], 100 to 1000 nM in assay [2], less than 10 nM in assay [3] and 10 to 100 nM in assay [4].
As for `Cc1cncc2nnc(-c3ccc(Nc4cn(-c5c(Cl)cccc5Cl)nc4C(N)=O)cn3)n12` [compound 436, 1-(2,6-dichlorophenyl)-4-((6-(5-methyl-[1,2,4]triazolo[4,3-a]pyrazin-3-yl)pyridin-3-yl)amino)-1H-pyrazole-3-carboxamide], the IC50 is 100 to 1000 nM in assay [1], 100 to 1000 nM in assay [2], 10 to 100 nM in assay [3] and less than 10 nM in assay [4].
As for `NC(=O)c1nn(-c2c(Cl)cccc2Cl)cc1Nc1ccc(-c2nnc3cncc(C(F)(F)F)n23)nc1` [compound 472, 1-(2,6-dichlorophenyl)-4-((6-(5-(trifluoromethyl)-[1,2,4]triazolo[4,3-a]pyrazin-3-yl)pyridin-3-yl)amino)-1H-pyrazole-3-carboxamide], the half-maximal inhibitory concentration (IC50) in assay [1] was in the range of 100 to 1000 nM; in assay [2] it was 100 to 1000 nM; in assay [3], 10 to 100 nM; in assay [4], 10 to 100 nM.
For the compound `Cc1cncnc1-c1ccc(Nc2cn(-c3c(Cl)cccc3Cl)nc2C(N)=O)cc1` [compound 51, 1-(2,6-dichlorophenyl)-4-((4-(5-methylpyrimidin-4-yl)phenyl)amino)-1H-pyrazole-3-carboxamide], the IC50 is 100 to 1000 nM in assay [1], 100 to 1000 nM in assay [2], 10 to 100 nM in assay [3] and 10 to 100 nM in assay [4].
Regarding `NC(=O)c1nn(-c2c(Cl)cccc2Cl)cc1Nc1ccc(-c2ccnnc2)cc1` [compound 321, 1-(2,6-dichlorophenyl)-4-((4-(pyridazin-4-yl)phenyl)amino)-1H-pyrazole-3-carboxamide], the IC50 in assay [1] was in the range of 100 to 1000 nM; in assay [2] it was 100 to 1000 nM; in assay [3], 10 to 100 nM; in assay [4] it was 10 to 100 nM.
